What all share (format): cell-based
Series [1] relates to colon cancer cell line HCT 116. The series can be described thus: Growth profile / viability of HCT116 colon cancer cells, XTT test. The following applies: Homo sapiens, HCT-116, 96 h, Control DMSO = 100%, read-out: percentage of viable cells, HCT116. As for the experimental part:
(§1) The effect of the compounds Z522-XXX on the growth profile of cancer cells which express Fer was tested. The cells that were tested were: the colon cancer cell lines HT29 and HCT 116, RKO. The effect of each of the compounds on FS cells, a non malingnant fibroblastic cell line, was also studied.
(§2) Generally, cells were seeded in 96 wells microplates and were left to grow untreated overnight. Each of the compounds was dissolved in DMSO and was then added to each well in a final concentration of 5 μM. The concentration of DMSO in each well was 0.4% v/v. Untreated cells and cells subjected to 0.4% DMSO alone, served as controls. The percentage of viable cells in each well was determined 96 hours after compounds addition, using the XTT test (Berridge, M. V. et al, 2005).
(In general: Formazan colour is commonly taken as a measure of viable cells.)

The test system of series [2] is colon cancer cell line HT29. Kind of series: Growth profile / viability of HT29 colon cancer cells, XTT test. The following applies: Homo sapiens, HT-29, 96 h, Control DMSO = 100%, read-out: percentage of viable cells, HT29. As for the experimental part: as §1, §2
The subject of series [3] is colon cancer cell line RKO. The series can be described thus: Growth profile / viability of RKO colon cancer cells, XTT test. The following applies: 96 h, Control DMSO = 100%, read-out: percentage of viable cells, RKO. The protocol: as §1, §2
Series [4] can be described thus: Viability of FS non malignant fibroblastic cells, XTT test. The following applies: FS cells (non-malignant fibroblastic cell line), Control DMSO = 100%, read-out: percentage of viable cells, FS. As for the experimental part:
as §1, §2

Like-named read-outs stand apart in the source and are kept apart here.

For `CN1CCN(C(=O)C2CCN(c3nn4cc(-c5ccc(N(C)CCO)cc5)nc4s3)CC2)CC1` [Compound Z522-0177, 2-{methyl[4-(2-{4-[(4-methyl-piperazin-1-yl)-carbonyl]piperidin-1-yl}imidazo-[2,1-b][1,3,4]-thiadiazol-6-yl)-phenyl]amino} ethanol], the viability at 5 µM in series [1] (first HCT116 column) turned out to be 107%; in series [1] (second HCT116 column), 104%; in series [2] (first HT29 column) it was 116%; in series [2] (second HT29 column) it was 121%; in series [3] (first RKO column) it was 97%; in series [3] (second RKO column) it was 96%. The viability at 96 h, 5 µM came out at 120% in series [4] (first FS column) and 116% in series [4] (second FS column).
Consider `Cc1c(-c2ccc(N(C)C)cc2)nc2sc(N3CCC(C(=O)N4CCN(C)CC4)CC3)nn12` [Compound Z522-0179, N,N-dimethyl-4-(5-methyl-2-{4-[(4-methyl-piperazin-1-yl)carbonyl]piperidin-1-yl}imidazo-[2,1-b][1,3,4]-thiadiazol-6-yl)-aniline], for which the viability at 5 µM is 101% in series [1] (first HCT116 column); 108% in series [1] (second HCT116 column); 103% in series [2] (first HT29 column); 100% in series [2] (second HT29 column); 109% in series [3] (first RKO column); 103% in series [3] (second RKO column). Besides, the viability at 96 h, 5 µM in series [4] (first FS column) was found to be 91%; in series [4] (second FS column) it was 117%.
Consider `Cc1c(-c2ccc(N3CCN(C)CC3)cc2)nc2sc(N3CCC(C(=O)N4CCN(C)CC4)CC3)nn12` [Compound Z522-0180, 5-methyl-2-{4-[(4-methyl-piperazin-1-yl)carbonyl]piperidin-1-yl}-6-[4-(4-methylpiperazin-1-yl)phenyl]-imidazo[2,1-b]-[1,3,4]thiadiazole], for which the viability at 5 µM in series [1] (first HCT116 column) amounted to 94%; in series [1] (second HCT116 column), 105%; in series [2] (first HT29 column) it was 89%; in series [2] (second HT29 column) it was 90%; in series [3] (first RKO column) it was 95%; in series [3] (second RKO column) it was 103%. Further, the viability at 96 h, 5 µM in series [4] (first FS column) and in series [4] (second FS column) was 101% each time.
For `Cc1c(-c2ccc(N3CCSCC3)cc2)nc2sc(N3CCC(C(=O)N4CCN(C)CC4)CC3)nn12` [Compound Z522-0184, 5-methyl-2-{4-[(4-methyl-piperazin-1-yl)carbonyl]piperidin-1-yl}-6-(4-thiomorpholin-4-ylphenyl)imidazo [2,1-b][1,3,4]-thiadiazole], the viability at 5 µM in series [1] (first HCT116 column) turned out to be 77%; in series [1] (second HCT116 column), 87%; in series [2] (first HT29 column), 50%; in series [2] (second HT29 column), 44%; in series [3] (first RKO column), 41%; in series [3] (second RKO column) it was 53%. Also, the viability at 96 h, 5 µM is 71% in series [4] (first FS column) and 86% in series [4] (second FS column).
Regarding `Cc1c(-c2ccc(N3CCCCCC3)cc2)nc2sc(N3CCC(C(=O)N4CCN(C)CC4)CC3)nn12` [Compound Z522-0185, 6-(4-azepan-1-yl-phenyl)-5-methyl-2-{4-[(4-methyl-piperazin-1-yl)carbonyl]piperidin-1-yl}imidazo-[2,1-b][1,3,4]-thiadiazole], the viability at 5 µM in series [1] (first HCT116 column) stood at 40%; in series [1] (second HCT116 column) it was 42%; in series [2] (first HT29 column) it was 19%; in series [2] (second HT29 column), 11%; in series [3] (first RKO column) it was 14%; in series [3] (second RKO column), 15%. For the same compound, the viability at 96 h, 5 µM is 92% in series [4] (first FS column) and 94% in series [4] (second FS column).
For the compound `Cc1c(-c2ccc(N3CCCC(C)C3)cc2)nc2sc(N3CCC(C(=O)N4CCN(C)CC4)CC3)nn12` (stereo not drawn) [Compound Z522-0186, 5-methyl-2-{4-[(4-methyl-piperazin-1-yl)carbonyl]piperidin-1-yl}-6-[4-(3-methylpiperidin-l-yl)phenyl]-imidazo[2,1-b]-[1,3,4]thiadiazole], the viability at 5 µM in series [1] (first HCT116 column) is 23%; in series [1] (second HCT116 column) it was 26%; in series [2] (first HT29 column), 7%; in series [2] (second HT29 column), 7%; in series [3] (first RKO column), 8%; in series [3] (second RKO column), 11%. Moreover, the results for the viability at 96 h, 5 µM in series [4] (first FS column) and in series [4] (second FS column) were 82% and 94%, respectively.
In the case of `Cc1c(-c2ccc(-n3cccn3)cc2)nc2sc(N3CCC(C(=O)N4CCN(C)CC4)CC3)nn12` [Compound Z522-0187, 5-methyl-2-{4-[(4-methyl-piperazin-1-yl)-carbonyl]piperidin-1-yl}-6-[4-(1H-pyrazol-1-yl)-phenyl]imidazo[2,1-b][1,3,4]-thiadiazole], the viability at 5 µM in series [1] (first HCT116 column) was determined as 110%; in series [1] (second HCT116 column) it was 97%; in series [2] (first HT29 column), 99%; in series [2] (second HT29 column) it was 111%; in series [3] (first RKO column) it was 56%; in series [3] (second RKO column) it was 56%. For the same compound, the viability at 96 h, 5 µM in series [4] (first FS column) is 92%; in series [4] (second FS column), 94%.
Take `Cc1c(-c2ccc(N3CCC(C)CC3)cc2)nc2sc(N3CCC(C(=O)N4CCN(C)CC4)CC3)nn12` [Compound Z522-0190, 5-methyl-2-{4-[(4-methyl-piperazin-1-yl)-carbonyl]piperidin-1-yl}-6-[4-(4-methylpiperidin-1-yl)phenyl]-imidazo[2,1-b]-[1,3,4]thiadiazole]: the viability at 5 µM is 45% in series [1] (first HCT116 column); 51% in series [1] (second HCT116 column); 7% in series [2] (first HT29 column); 6% in series [2] (second HT29 column); 9% in series [3] (first RKO column); 9% in series [3] (second RKO column). The viability at 96 h, 5 µM was determined as 86% in series [4] (first FS column) and 101% in series [4] (second FS column).
Regarding `Cc1c(-c2ccc(N3CCCCCCC3)cc2)nc2sc(N3CCC(C(=O)N4CCN(C)CC4)CC3)nn12` [Compound Z522-0191, 6-(4-azocan-1-ylphenyl)-5-methyl-2-{4-[(4-methylpiperazin-1-yl)carbonyl]-piperidin-1-yl}-imidazo[2,1-b]-[1,3,4]thiadiazole], the viability at 5 µM was 39% in series [1] (first HCT116 column); 41% in series [1] (second HCT116 column); 12% in series [2] (first HT29 column); 10% in series [2] (second HT29 column); 23% in series [3] (first RKO column); 35% in series [3] (second RKO column). Moreover, the viability at 96 h, 5 µM came to 103% in series [4] (first FS column) and 101% in series [4] (second FS column).
Consider `Cc1c(-c2ccc(N3CCCC3)cc2)nc2sc(N3CCC(C(=O)N4CCN(C)CC4)CC3)nn12` [Compound Z522-0195, 5-methyl-2-{4-[(4-methyl-piperazin-1-yl)carbonyl]piperidin-1-yl}-6-(4-pyrrolidin-1-ylphenyl)imidazo [2,1-b][1,3,4]-thiadiazole], for which the viability at 5 µM in series [1] (first HCT116 column) worked out at 111%; in series [1] (second HCT116 column) it was 113%; in series [2] (first HT29 column) it was 91%; in series [2] (second HT29 column), 82%; in series [3] (first RKO column) it was 80%; in series [3] (second RKO column), 75%. In addition, the viability at 96 h, 5 µM stood at 109% in series [4] (first FS column) and 119% in series [4] (second FS column).
In the case of `Cc1c(-c2ccc(N3CCOCC3)cc2)nc2sc(N3CCC(C(=O)N4CCN(C)CC4)CC3)nn12` [Compound Z522-0196, 5-methyl-2-{4-[(4-methyl-piperazin-1-yl)-carbonyl]piperidin-1-yl}-6-(4-morpholin-4-ylphenyl)imidazo [2,1-b][1,3,4]-thiadiazole], the viability at 5 µM in series [1] (first HCT116 column) turned out to be 105%; in series [1] (second HCT116 column) it was 104%; in series [2] (first HT29 column), 104%; in series [2] (second HT29 column) it was 101%; in series [3] (first RKO column), 88%; in series [3] (second RKO column), 93%. Further, the viability at 96 h, 5 µM in series [4] (first FS column) was 86%; in series [4] (second FS column), 94%.
Regarding `Cc1c(-c2ccc(N(C)CCO)cc2)nc2sc(N3CCC(C(=O)N4CCN(C)CC4)CC3)nn12` [Compound Z522-0197, 2-{methyl[4-(5-methyl-2-{4-[(4-methylpiperazin-1-yl)carbonyl]-piperidin-1-yl}-imidazo[2,1-b]-[1,3,4]thiadiazol-6-yl)phenyl]-amino}ethanol], the viability at 5 µM is 95% in series [1] (first HCT116 column); 108% in series [1] (second HCT116 column); 102% in series [2] (first HT29 column); 110% in series [2] (second HT29 column); 111% in series [3] (first RKO column); 117% in series [3] (second RKO column). The values for the viability at 96 h, 5 µM in series [4] (first FS column) and in series [4] (second FS column) were 113% and 104%, respectively.
Turning to `O=C(C1CCN(c2nn3cc(-c4ccc(Cl)cc4)nc3s2)CC1)N1CCN(c2ccccn2)CC1` [Compound Z522-0200, 6-(4-chlorophenyl)-2-{4-[(4-pyridin-2-ylpiperazin-1-yl)carbonyl]piperidin-1-yl}imidazo[2,1-b][1,3,4]thiadiazole], the viability at 5 µM in series [1] (first HCT116 column) is 94%; in series [1] (second HCT116 column), 88%; in series [2] (first HT29 column) it was 92%; in series [2] (second HT29 column), 98%; in series [3] (first RKO column), 81%; in series [3] (second RKO column) it was 78%. Besides, the results for the viability at 96 h, 5 µM in series [4] (first FS column) and in series [4] (second FS column) were 95% and 103%, respectively.
